Measured values: patent US20070060558A1 (PALUMED S.A., priority 2004, published 2007)
≈ marks a conversion by molar mass, not a printed value. Read-outs that look alike come from different tables or passages of the source. Starred links: 1 amine or outer side, 2 acyl side, 3 side chain; linkers in the order of their positions; H or OH if unused. Positions of bridges follow the written chain, without caps; N, C: chain ends. Non-standard residues stand in square brackets, D forms with d. Residues, ends and D or L forms follow the SMILES beside them. ξ: configuration not given here. *: point of attachment. X1 = O=C1C[C@@H](C(=O)[*:2])N([*:1])C[C@H]1CSCCNc1ccnc2cc(Cl)ccc12; NMePhe(4-NMe2) = CN[C@@H](Cc1ccc(N(C)C)cc1)C(=O)O; Pip(4-oxo) = O=C1CCN[C@H](C(=O)O)C1; Picolinoyl(3-OH) = O=C(c1ncccc1O)*; Phg = N[C@H](C(=O)O)c1ccccc1; ξPhg = NC(C(=O)O)c1ccccc1; dAbu = CC[C@@H](N)C(=O)O

How the values were obtained:
[1] = system: Staphylococcus aureus MSSA CIP 4.83; experiment: Antibacterial activity (MIC/MBC); format: cell-based; conditions: S. aureus MSSA CIP 4.83
[2] = system: S. pyogenes CIP 56.41T; experiment: Antibacterial activity (MIC/MBC); format: cell-based, Streptococcus pyogenes; conditions: S. pyogenes CIP 56.41T
[3] = system: S. aureus MRSA clinical isolate; experiment: Antibacterial activity (MIC); format: cell-based, Staphylococcus aureus; conditions: S. aureus MRSA clinical isolate
[4] = system: S. pneumoniae PSSP CQI 201; experiment: Antibacterial activity (MIC); format: cell-based, Streptococcus pneumoniae; conditions: S. pneumoniae PSSP CQI 201
[5] = system: C. difficile CIP 104282; experiment: Antibacterial activity (MIC); format: cell-based, Clostridium difficile; conditions: Clostridioides difficile, CIP104282; C. difficile CIP 104282; read-out: MIC
[6] = system: P. aeruginosa CIP 103467; experiment: Antibacterial activity (MIC); format: cell-based; conditions: Pseudomonas aeruginosa, CIP103467; P. aeruginosa CIP 103467; read-out: MIC
[7] = system: H. influenzae CIP 102514; experiment: Antibacterial activity (MIC/MBC); format: cell-based, Haemophilus influenzae; conditions: Haemophilus influenzae, CIP102514; H. influenzae CIP 102514; read-out: MIC
[8] = system: B. thuringiensis CIP 104676; experiment: Antibacterial activity (MIC); format: cell-based; conditions: Bacillus thuringiensis, CIP104676; B. thuringiensis CIP 104676; read-out: MIC
[9] = system: S. pneumoniae PRSP; experiment: Antibacterial activity (MIC), Table VII; format: cell-based; conditions: Streptococcus pneumoniae; S. pneumoniae PRSP (Table VII); read-out: MIC
[10] = system: E. faecalis VRE CIP 104676; experiment: Antibacterial activity (MIC/MBC); format: cell-based, Enterococcus faecalis; conditions: Enterococcus faecalis; E. faecalis VRE CIP 104676; read-out: MIC
[11] = system: E. coli CIP 54127; experiment: Antibacterial activity (MIC); format: cell-based; conditions: Escherichia coli, CIP54127; E. coli CIP 54127; read-out: MIC
[12] = Staphylococcus aureus, read-out: MIC
[13] = Streptococcus pneumoniae, read-out: MIC

MIC [1, 12]	MIC [4, 13]	MIC [6]	MIC [7]	MIC [8]	MIC [9]	MIC [10]	MIC [11]	Compound	also measured
0.31 µg/mL (≈ 0.277 µM)	0.31 µg/mL (≈ 0.277 µM)							CC[C@H]1NC(=O)[C@@H](NC(=O)c2ncccc2O)[C@@H](C)OC(=O)C(c2ccccc2)NC(=O)[C@@H]2CC(=O)[C@H](CSCCNc3ccnc4cc(Cl)ccc34)CN2C(=O)[C@H](Cc2ccc(N(C)C)cc2)N(C)C(=O)[C@@H]2CCCN2C1=O (stereo partly drawn) [PA 1182, 5δ-{1-[2-(7-Chloroquinolin-4-ylamino)-ethylamino]-methylsulfanyl}pristinamycin IA] ({Picolinoyl(3-OH)}-T[dAbu]P[NMePhe(4-NMe2)][X1][ξPhg]; ester 1-C)	MIC ([2]; Streptococcus pyogenes, CIP56, read-out: MIC): 0.32 µg/mL (≈ 0.286 µM); MIC [3, 12]: 1.25 µg/mL (≈ 1.12 µM)
	1.25 µg/mL (≈ 2.37 µM)							O=C(CCNc1ccnc2cc(Cl)ccc12)NC[C@H]1CN(c2ccc(N3CCOCC3)c(F)c2)C(=O)O1 [PA 1185, (5S)-3-(7-Chloroquinolin-4-ylamino)-N-[3-(3-fluoro-4-morpholin-4-yl-phenyl)-2-oxo-oxazolidin-5-ylmethyl]-propionamide]	MIC [5]: 0.16 µg/mL (≈ 0.303 µM)
0.156 µg/mL		> 5 µg/mL	0.625 µg/mL	0.625 µg/mL	0.039 µg/mL	0.625 µg/mL	1.25 µg/mL	Cl.O=C(O)c1cn(C2CC2)c2cc(N3CCN(c4ccnc5cc(C(F)(F)F)ccc45)CC3)c(F)cc2c1=O [PA 1284, 1-Cyclopropopyl-6-fluoro-4-oxo-7-[4-(7-trifluoromethylquinolin-4-yl)-piperazin-1-yl]-1,4-dihydroquinoline-3-carboxylic acid hydrochloride salt]	
0.02 µg/mL		> 5 µg/mL	0.312 µg/mL	0.156 µg/mL	0.039 µg/mL	0.156 µg/mL	0.625 µg/mL	Cl.O=C(O)c1cn(C2CC2)c2cc(N3CCN(c4ccnc5c(Cl)cccc45)CC3)c(F)cc2c1=O [PA 1285, 7-[4-(8-Chloroquinolin-4-yl)-piperazin-1-yl]-1-cyclopropopyl-6-fluoro-4-oxo-1,4-dihydroquinoline-3-carboxylic acid hydrochloride salt]	
								CC[C@H]1NC(=O)[C@@H](NC(=O)c2ncccc2O)[C@@H](C)OC(=O)[C@H](c2ccccc2)NC(=O)[C@@H]2CC(=O)CCN2C(=O)[C@H](Cc2ccc(N(C)C)cc2)N(C)C(=O)[C@@H]2CCCN2C1=O [Pristinamycin IA, reference compound] ({Picolinoyl(3-OH)}-T[dAbu]P[NMePhe(4-NMe2)][Pip(4-oxo)][Phg]; ester 1-C)	MIC [1]: 2.5 µg/mL (≈ 2.88 µM); MIC [2]: 1.25 µg/mL (≈ 1.44 µM); MIC [3]: 5 µg/mL (≈ 5.77 µM); MIC [4]: 0.31 µg/mL (≈ 0.358 µM)
